Biological target: MAP kinase-activated protein kinase 2 (Homo sapiens, UniProt P49137)
Assay: Mass Spectrometry Assay: Compounds I-1 through I-50 of the invention were assayed in a mass spectrometric assay to measure their ability to covalently modify MK2 protein. The procedure for this assay follows. Intact MK2 protein (Invitrogen, Cat. No. PR5320A) was incubated for 60 minutes at room temperature with a 10-fold excess of test compound to protein. Aliquots of the resulting mixture (6 μL …

MAP kinase-activated protein kinase 2, sequence (P49137 whole entry): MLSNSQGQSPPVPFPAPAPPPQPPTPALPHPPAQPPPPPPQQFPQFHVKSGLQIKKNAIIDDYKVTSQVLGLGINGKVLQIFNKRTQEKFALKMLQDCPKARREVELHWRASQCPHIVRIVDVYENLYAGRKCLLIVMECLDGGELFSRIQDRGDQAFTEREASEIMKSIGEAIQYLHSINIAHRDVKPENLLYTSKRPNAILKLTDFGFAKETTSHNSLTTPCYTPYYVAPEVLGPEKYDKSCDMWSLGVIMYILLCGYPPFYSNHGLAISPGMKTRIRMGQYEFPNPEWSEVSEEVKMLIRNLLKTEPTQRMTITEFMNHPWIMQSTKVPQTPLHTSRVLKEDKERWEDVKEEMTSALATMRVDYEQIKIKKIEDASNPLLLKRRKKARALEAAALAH

## C[C@@H]1CNc2c(sc3ccc4nc(Nc5nccc(Cl)n5)ccc4c23)C(=O)N1
  IC50: > 1000 nM

## CN(C)C[C@@H]1CNc2c(sc3ccc4nc(Nc5cc(F)ncn5)ccc4c23)C(=O)N1
  IC50: > 1000 nM

## C[C@@H]1CNc2c(sc3ccc4nc(Nc5nc(Cl)ncc5C(=O)NC5COC5)ccc4c23)C(=O)N1
  IC50: < 100 nM

## C[C@@H]1CNc2c(sc3ccc4nc(Oc5cc(CNC(C)(C)C)nc(Cl)n5)ccc4c23)C(=O)N1
  IC50: < 100 nM

## C[C@@H]1CNc2c(sc3ccc4nc(Nc5nc(Cl)ncc5C(=O)NC5CCN(C)CC5)ccc4c23)C(=O)N1
  IC50: < 100 nM

## C[C@@H]1CNc2c(sc3ccc4nc(Nc5nc(Cl)ncc5C(=O)NC5CC5)ccc4c23)C(=O)N1
  IC50: < 100 nM

Reference: ChEMBL document CHEMBL5726510, “MK2 inhibitors and uses thereof” (2017)
